From patent US20170050957A1, “4-AMINO-6-(HETEROCYCLIC)PICOLINATES AND 6-AMINO-2-(HETEROCYCLIC)PYRIMIDINE-4-CARBOXYLATES AND THEIR USE AS HERBICIDES” (Dow AgroSciences LLC, priority 2013, published 2017)
Where two headings read alike, the source gives them in different places.

What was measured:
[1] = tested on: Key Broadleaf Weed and Crop Species; test: Post-emergent Test II herbicidal activity (Table 15); assay type: in vivo; settings: post-emergence, 336 h, 14 d; for pest or weed control at 35 g/ha: 35 g ai/ha; for pest or weed control at 70 g/ha: 70 g ai/ha; for pest or weed control at 140 g/ha: 140 g ai/ha
Procedure, shortened: (§1)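 Plants at first-second true leaf stage, grown 7-21 d in greenhouse (~15 h photoperiod, 23-29 °C day), were track-sprayed at 187 L/ha with compound in acetone/DMSO/water/isopropanol/crop oil/Triton X-155 at a high rate plus 1/2× to 1/16× dilutions. Injury scored visually after 14 d versus untreated plants, 0 (none) to 100% (complete kill).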

[2] = tested on: Key Grass and Sedge Weeds as well as Grass Crops; test: Post-emergent Test II herbicidal activity (Table 16); assay type: in vivo; settings: post-emergence, 336 h, 14 d; for pest or weed control at 35 g/ha: 35 g ai/ha; for pest or weed control at 70 g/ha: 70 g ai/ha; for pest or weed control at 140 g/ha: 140 g ai/ha
Procedure, shortened: as §1

[3] = Abutilon theophrasti, velvetleaf (Abutilon theophrasti), read-out: Visual Growth Reduction (%) 14 Days After Application, ABUTH
[4] = Amaranthus retroflexus, redroot pigweed (Amaranthus retroflexus), read-out: Visual Growth Reduction (%) 14 Days After Application, AMARE
[5] = Brassica napus, oilseed rape, canola (Brassica napus), read-out: Visual Growth Reduction (%) 14 Days After Application, BRSNN
[6] = Chenopodium album, lambsquarters (Chenopodium album), read-out: Visual Growth Reduction (%) 14 Days After Application, CHEAL
[7] = Euphorbia heterophylla, wild poinsettia (Euphorbia heterophylla), read-out: Visual Growth Reduction (%) 14 Days After Application, EPHHL
[8] = Helianthus annuus, sunflower (Helianthus annuus), read-out: Visual Growth Reduction (%) 14 Days After Application, HELAN
[9] = Cyperus esculentus, yellow nutsedge (Cyperus esculentus), read-out: Visual Growth Reduction (%) 14 Days After Application, CYPES
[10] = Oryza sativa, rice (Oryza sativa), read-out: Visual Growth Reduction (%) 14 Days After Application, ORYSA
[11] = Setaria faberi, giant foxtail (Setaria faberi), read-out: Visual Growth Reduction (%) 14 Days After Application, SETFA
[12] = Triticum aestivum, wheat, spring (Triticum aestivum), read-out: Visual Growth Reduction (%) 14 Days After Application, TRZAS
[13] = Zea mays, maize, corn (Zea mays), read-out: Visual Growth Reduction (%) 14 Days After Application, ZEAMX
[14] = Echinochloa crus-galli, barnyardgrass (Echinochloa crus-galli), read-out: Visual Growth Reduction (%) 14 Days After Application, ECHCG

| Structure (SMILES) | pest or weed control at 35 g/ha [1, 3] [%] | pest or weed control at 70 g/ha [1, 3] [%] | pest or weed control at 140 g/ha [1, 3] [%] | pest or weed control at 35 g/ha [1, 4] [%] | pest or weed control at 70 g/ha [1, 4] [%] | pest or weed control at 140 g/ha [1, 4] [%] | pest or weed control at 35 g/ha [1, 5] [%] | pest or weed control at 70 g/ha [1, 5] [%] | pest or weed control at 140 g/ha [1, 5] [%] | pest or weed control at 35 g/ha [1, 6] [%] | pest or weed control at 70 g/ha [1, 6] [%] | pest or weed control at 140 g/ha [1, 6] [%] | pest or weed control at 35 g/ha [1, 7] [%] | pest or weed control at 70 g/ha [1, 7] [%] | pest or weed control at 140 g/ha [1, 7] [%] | pest or weed control at 35 g/ha [1, 8] [%] | pest or weed control at 70 g/ha [1, 8] [%] | pest or weed control at 140 g/ha [1, 8] [%] | pest or weed control at 35 g/ha [2, 9] [%] | pest or weed control at 70 g/ha [2, 9] [%] | also measured |
| --- | --- | --- | --- | --- | --- | --- | --- | --- | --- | --- | --- | --- | --- | --- | --- | --- | --- | --- | --- | --- | --- |
| COC(=O)c1nc(-c2ccc(Cl)c3occc23)nc(N)c1Cl [Compound 2.20] | 45 to 59 | 60 to 74 | 60 to 74 | 95 to 100 | 95 to 100 | 95 to 100 | 0 to 29 | 0 to 29 | 30 to 44 | 85 to 94 | 95 to 100 | 95 to 100 | 0 to 29 | 0 to 29 | 0 to 29 | 85 to 94 | 95 to 100 | 95 to 100 | 0 to 29 | 0 to 29 | pest or weed control at 140 g/ha [2, 9]: 0 to 29%; pest or weed control at 35 g/ha [2, 10]: 0 to 29%; pest or weed control at 70 g/ha [2, 10]: 0 to 29%; pest or weed control at 140 g/ha [2, 10]: 0 to 29%; pest or weed control at 35 g/ha [2, 11]: 0 to 29%; pest or weed control at 70 g/ha [2, 11]: 30 to 44%; pest or weed control at 140 g/ha [2, 11]: 60 to 74%; pest or weed control at 35 g/ha [2, 12]: 0 to 29%; pest or weed control at 70 g/ha [2, 12]: 0 to 29%; pest or weed control at 140 g/ha [2, 12]: 0 to 29%; pest or weed control at 35 g/ha [2, 13]: 0 to 29%; pest or weed control at 70 g/ha [2, 13]: 0 to 29%; pest or weed control at 140 g/ha [2, 13]: 0 to 29% |
| COc1c(N)nc(-c2cc3[nH]ccc3cc2F)nc1C(=O)O [Compound 1.37] | 0 to 29 | 0 to 29 | 0 to 29 | 0 to 29 | 0 to 29 | 0 to 29 | 30 to 44 | 60 to 74 | 75 to 84 | 0 to 29 | 0 to 29 | 0 to 29 | 0 to 29 | 0 to 29 | 0 to 29 | 0 to 29 | 0 to 29 | 0 to 29 | 0 to 29 | 0 to 29 | pest or weed control at 140 g/ha [2, 9]: 0 to 29%; pest or weed control at 35 g/ha [2, 14]: 0 to 29%; pest or weed control at 70 g/ha [2, 14]: 0 to 29%; pest or weed control at 140 g/ha [2, 14]: 0 to 29%; pest or weed control at 35 g/ha [2, 10]: 0 to 29%; pest or weed control at 70 g/ha [2, 10]: 0 to 29%; pest or weed control at 140 g/ha [2, 10]: 0 to 29%; pest or weed control at 35 g/ha [2, 11]: 0 to 29%; pest or weed control at 70 g/ha [2, 11]: 0 to 29%; pest or weed control at 140 g/ha [2, 11]: 0 to 29%; pest or weed control at 35 g/ha [2, 12]: 0 to 29%; pest or weed control at 70 g/ha [2, 12]: 0 to 29%; pest or weed control at 140 g/ha [2, 12]: 0 to 29%; pest or weed control at 35 g/ha [2, 13]: 0 to 29%; pest or weed control at 70 g/ha [2, 13]: 0 to 29%; pest or weed control at 140 g/ha [2, 13]: 0 to 29% |
